Source: ChEMBL document CHEMBL1201862, “PubChem BioAssay data set” (2004)
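Following 48 hours of exposure in 96-well plates, responses at five concentrations were used to interpolate endpoints linearly. GI50: concentration for 50% inhibition of growth.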 Calls of active or inactive are those of the source. Cut-off read from the data, not from the text of the source: active = GI50 up to about 1.1 µM and inactive = higher.

Assays:
Assay in all cases: DTP human tumour cell line panel, 48 h
[1] = test system: 786-0
[2] = test system: A498
[3] = test system: A549
[4] = test system: ACHN
[5] = test system: BT-549
[6] = test system: CAKI-1
[7] = test system: CCRF-CEM
[8] = test system: COLO 205
[9] = test system: DU-145
[10] = test system: EKVX
[11] = test system: HCC 2998
[12] = test system: HCT-116
[13] = test system: HCT-15
[14] = test system: HL-60
[15] = test system: HOP-62
[16] = test system: HOP-92
[17] = test system: HT-29
[18] = test system: Hs-578T
[19] = test system: IGROV-1
[20] = test system: KM12
[21] = test system: LOX IMVI
[22] = test system: M14
[23] = test system: MCF7
[24] = test system: MDA-MB-231
[25] = test system: MDA-MB-435
[26] = test system: MDA-N
[27] = test system: MOLT-4
[28] = test system: Malme-3M
[29] = test system: NCI-H226
[30] = test system: NCI-H23
[31] = test system: NCI-H460
[32] = test system: NCI-H522
[33] = test system: NCI/ADR-RES
[34] = test system: OVCAR-4
[35] = test system: OVCAR-5
[36] = test system: OVCAR-8
[37] = test system: PC-3
[38] = test system: RXF 393
[39] = test system: SF-268
[40] = test system: SF-295
[41] = test system: SF-539
[42] = test system: SK-MEL-28
[43] = test system: SK-MEL-2
[44] = test system: SK-MEL-5
[45] = test system: SNB-19
[46] = test system: SNB-75
[47] = test system: SR
[48] = test system: SW-620
[49] = test system: T47D
[50] = test system: TK-10
[51] = test system: U-251
[52] = test system: UACC-257
[53] = test system: UO-31
[54] = test system: OVCAR-3
[55] = test system: RPMI-8226
[56] = test system: SK-OV-3
[57] = test system: SN12C
[58] = test system: UACC-62
[59] = test system: K562

Structure (SMILES): CCC(=O)c1ccc2[nH]c3c(C)c4c(O)cc(C)nc4c(C)c3c2c1
- GI50 [1]: > 100 µM (inactive)
- GI50 [2]: > 100 µM (inactive)
- GI50 [3]: > 100 µM (inactive)
- GI50 [4]: > 100 µM (inactive)
- GI50 [5]: > 100 µM (inactive)
- GI50 [6]: > 100 µM (inactive)
- GI50 [7]: > 100 µM (inactive)
- GI50 [8]: > 100 µM (inactive)
- GI50 [9]: > 100 µM (inactive)
- GI50 [10]: > 100 µM (inactive)
- GI50 [11]: > 100 µM (inactive)
- GI50 [12]: > 100 µM (inactive)
- GI50 [13]: > 100 µM
- GI50 [14]: > 100 µM (inactive)
- GI50 [15]: 92 µM (inactive)
- GI50 [16]: 4.3 µM (inactive)
- GI50 [17]: > 100 µM (inactive)
- GI50 [18]: > 100 µM (inactive)
- GI50 [19]: > 100 µM (inactive)
- GI50 [20]: > 100 µM (inactive)
- GI50 [21]: > 100 µM (inactive)
- GI50 [22]: > 100 µM (inactive)
- GI50 [23]: > 100 µM (inactive)
- GI50 [24]: 40.8 µM (inactive)
- GI50 [25]: > 100 µM (inactive)
- GI50 [26]: > 100 µM (inactive)
- GI50 [27]: > 100 µM (inactive)
- GI50 [28]: > 100 µM (inactive)
- GI50 [29]: > 100 µM (inactive)
- GI50 [30]: > 100 µM (inactive)
- GI50 [31]: > 100 µM (inactive)
- GI50 [32]: > 100 µM (inactive)
- GI50 [33]: > 100 µM (inactive)
- GI50 [34]: > 100 µM (inactive)
- GI50 [35]: > 100 µM (inactive)
- GI50 [36]: > 100 µM (inactive)
- GI50 [37]: > 100 µM (inactive)
- GI50 [38]: > 100 µM (inactive)
- GI50 [39]: > 100 µM (inactive)
- GI50 [40]: > 100 µM (inactive)
- GI50 [41]: > 100 µM (inactive)
- GI50 [42]: > 100 µM (inactive)
- GI50 [43]: > 100 µM (inactive)
- GI50 [44]: > 100 µM (inactive)
- GI50 [45]: > 100 µM (inactive)
- GI50 [46]: > 100 µM (inactive)
- GI50 [47]: 40.6 µM (inactive)
- GI50 [48]: > 100 µM (inactive)
- GI50 [49]: > 100 µM (inactive)
- GI50 [50]: 63.2 µM (inactive)
- GI50 [51]: 42.6 µM (inactive)
- GI50 [52]: > 100 µM (inactive)
- GI50 [53]: > 100 µM (inactive)

Structure (SMILES): COc1c(C)c(OC)c(C(=O)CC(C)C)c(OC)c1C
- GI50 [1]: > 100 µM (inactive)
- GI50 [2]: > 100 µM (inactive)
- GI50 [3]: > 100 µM (inactive)
- GI50 [4]: > 100 µM (inactive)
- GI50 [5]: > 100 µM (inactive)
- GI50 [6]: > 100 µM (inactive)
- GI50 [7]: > 100 µM (inactive)
- GI50 [8]: > 100 µM (inactive)
- GI50 [9]: > 100 µM (inactive)
- GI50 [10]: > 100 µM (inactive)
- GI50 [11]: > 100 µM (inactive)
- GI50 [12]: 65.6 µM (inactive)
- GI50 [13]: 37.1 µM
- GI50 [14]: 7.01 µM (inactive)
- GI50 [15]: > 100 µM (inactive)
- GI50 [16]: > 100 µM (inactive)
- GI50 [17]: 63.4 µM (inactive)
- GI50 [18]: > 100 µM (inactive)
- GI50 [19]: > 100 µM (inactive)
- GI50 [20]: 74 µM (inactive)
- GI50 [21]: 62.7 µM (inactive)
- GI50 [22]: > 100 µM (inactive)
- GI50 [23]: > 100 µM (inactive)
- GI50 [24]: > 100 µM (inactive)
- GI50 [25]: > 100 µM (inactive)
- GI50 [26]: > 100 µM (inactive)
- GI50 [27]: 43.7 µM (inactive)
- GI50 [28]: > 100 µM (inactive)
- GI50 [29]: > 100 µM (inactive)
- GI50 [30]: 83 µM (inactive)
- GI50 [32]: > 100 µM (inactive)
- GI50 [33]: 52.6 µM (inactive)
- GI50 [54]: > 100 µM (inactive)
- GI50 [34]: 23.6 µM (inactive)
- GI50 [35]: > 100 µM (inactive)
- GI50 [36]: > 100 µM (inactive)
- GI50 [37]: 52.4 µM (inactive)
- GI50 [55]: 20.3 µM (inactive)
- GI50 [38]: > 100 µM (inactive)
- GI50 [39]: > 100 µM (inactive)
- GI50 [40]: > 100 µM (inactive)
- GI50 [41]: > 100 µM (inactive)
- GI50 [42]: > 100 µM (inactive)
- GI50 [43]: > 100 µM (inactive)
- GI50 [44]: 40.3 µM (inactive)
- GI50 [56]: > 100 µM (inactive)
- GI50 [57]: > 100 µM (inactive)
- GI50 [45]: 24.9 µM (inactive)
- GI50 [47]: 21.4 µM (inactive)
- GI50 [48]: > 100 µM (inactive)
- GI50 [49]: 68.1 µM (inactive)
- GI50 [50]: > 100 µM (inactive)
- GI50 [51]: > 100 µM (inactive)
- GI50 [52]: > 100 µM (inactive)
- GI50 [58]: > 100 µM (inactive)
- GI50 [53]: 49.9 µM (inactive)

Structure (SMILES): COc1ccc2c(c1OC)C(=O)O[C@@H]2[C@H]1c2cc3c(cc2CCN1C)OCO3
- GI50 [1]: > 100 µM (inactive)
- GI50 [2]: > 100 µM (inactive)
- GI50 [3]: > 100 µM (inactive)
- GI50 [4]: > 100 µM (inactive)
- GI50 [5]: > 100 µM (inactive)
- GI50 [6]: > 100 µM (inactive)
- GI50 [7]: > 10 µM (inactive)
- GI50 [8]: > 100 µM (inactive)
- GI50 [9]: > 100 µM (inactive)
- GI50 [10]: > 100 µM (inactive)
- GI50 [11]: > 100 µM (inactive)
- GI50 [12]: > 100 µM (inactive)
- GI50 [13]: > 100 µM
- GI50 [14]: > 100 µM (inactive)
- GI50 [15]: > 100 µM (inactive)
- GI50 [16]: > 100 µM (inactive)
- GI50 [17]: > 100 µM (inactive)
- GI50 [18]: > 100 µM (inactive)
- GI50 [19]: > 100 µM (inactive)
- GI50 [59]: > 100 µM (inactive)
- GI50 [20]: > 100 µM (inactive)
- GI50 [21]: > 100 µM (inactive)
- GI50 [22]: > 100 µM (inactive)
- GI50 [23]: > 100 µM (inactive)
- GI50 [24]: > 100 µM (inactive)
- GI50 [25]: > 100 µM (inactive)
- GI50 [26]: > 100 µM (inactive)
- GI50 [27]: > 100 µM (inactive)
- GI50 [29]: > 100 µM (inactive)
- GI50 [30]: > 100 µM (inactive)
- GI50 [31]: > 100 µM (inactive)
- GI50 [32]: > 100 µM (inactive)
- GI50 [33]: > 100 µM (inactive)
- GI50 [54]: > 100 µM (inactive)
- GI50 [34]: > 100 µM (inactive)
- GI50 [35]: > 100 µM (inactive)
- GI50 [36]: > 100 µM (inactive)
- GI50 [37]: > 100 µM (inactive)
- GI50 [55]: > 100 µM (inactive)
- GI50 [39]: > 100 µM (inactive)
- GI50 [40]: > 100 µM (inactive)
- GI50 [41]: > 100 µM (inactive)
- GI50 [43]: > 100 µM (inactive)
- GI50 [44]: > 100 µM (inactive)
- GI50 [56]: > 100 µM (inactive)
- GI50 [57]: > 100 µM (inactive)
- GI50 [45]: > 100 µM (inactive)
- GI50 [46]: > 100 µM (inactive)
- GI50 [47]: > 100 µM (inactive)
- GI50 [48]: > 100 µM (inactive)
- GI50 [49]: > 100 µM (inactive)
- GI50 [50]: > 100 µM (inactive)
- GI50 [51]: > 100 µM (inactive)
- GI50 [52]: > 100 µM (inactive)
- GI50 [58]: > 100 µM (inactive)
- GI50 [53]: > 100 µM (inactive)
